Measured values from ChEMBL document CHEMBL5214930, “Discovery of the First Selective IDO2 Inhibitor As Novel Immunotherapeutic Avenues for Rheumatoid Arthritis” (J Med Chem, 2022).
pEC50, pIC50: −log10 of the molar value. Values belong to the molecule of their own block, whether it stands above or below them. Calls of active or inactive are those of the source. The calls are words filed in the database; no cut-off is given here.

Key:
[1] = biological target: T1, Indoleamine 2,3-dioxygenase 2 (Homo sapiens) (UniProt Q6ZQW0); assay: Inhibition of recombinant human IDO2 in HeLa cells at […] relative to control; type: cell-based
T1 sequence (whole entry): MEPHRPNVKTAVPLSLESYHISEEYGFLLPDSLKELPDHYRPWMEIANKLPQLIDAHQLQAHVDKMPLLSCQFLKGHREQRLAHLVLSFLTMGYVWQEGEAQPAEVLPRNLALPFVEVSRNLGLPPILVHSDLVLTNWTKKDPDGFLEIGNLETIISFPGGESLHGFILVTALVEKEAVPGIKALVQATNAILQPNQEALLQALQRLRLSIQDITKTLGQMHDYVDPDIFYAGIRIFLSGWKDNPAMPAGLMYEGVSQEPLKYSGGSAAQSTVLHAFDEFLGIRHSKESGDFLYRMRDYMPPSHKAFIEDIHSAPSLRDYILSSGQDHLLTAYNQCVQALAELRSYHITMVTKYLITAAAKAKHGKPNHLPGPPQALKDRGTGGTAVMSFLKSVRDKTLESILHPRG

[2] = biological target: T2, Indoleamine 2,3-dioxygenase 1 (Homo sapiens, UniProt P14902); assay: Inhibition of recombinant human IDO1 in HeLa cells at 100 nM relative to control; type: cell-based
Target sequence in this assay (P14902 whole entry, looked up): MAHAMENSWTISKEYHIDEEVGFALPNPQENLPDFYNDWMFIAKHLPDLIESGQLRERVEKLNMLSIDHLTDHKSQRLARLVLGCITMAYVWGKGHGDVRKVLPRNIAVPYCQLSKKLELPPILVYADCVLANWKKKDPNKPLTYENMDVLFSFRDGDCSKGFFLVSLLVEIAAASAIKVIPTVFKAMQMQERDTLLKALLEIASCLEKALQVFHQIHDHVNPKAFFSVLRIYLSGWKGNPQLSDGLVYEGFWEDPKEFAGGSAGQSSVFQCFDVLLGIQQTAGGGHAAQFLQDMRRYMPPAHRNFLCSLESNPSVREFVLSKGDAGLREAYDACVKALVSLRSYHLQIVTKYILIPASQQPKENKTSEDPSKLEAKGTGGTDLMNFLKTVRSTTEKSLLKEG

HeLa [3] = assay: Antiproliferative activity against human HeLa cells; type: functional, cell-based
[4] = biological target: T1, Indoleamine 2,3-dioxygenase 2 (Homo sapiens); assay: Inhibition of recombinant human IDO2 in HeLa cells at 100 nM relative to control; type: cell-based
[5] = biological target: T2, Indoleamine 2,3-dioxygenase 1; assay: Inhibition of human IDO1
Target sequence in this assay (P14902 whole entry): as the sequence (P14902 whole entry, looked up) above

Mus musculus [6] = assay: Antiinflammatory activity against xylene-induced ear swelling ICR mouse model assessed as swelling inhibition ratio at 100 mg/kg, IG measured after 1 hr; type: functional; design: scale not given: the % may be the effect or the level left
[7] = biological target: T3, Indoleamine 2,3-dioxygenase 2 (Homo sapiens, UniProt Q6ZQW0); assay: Inhibition of human IDO2
T3 sequence (Q6ZQW0 whole entry): T1 sequence (whole entry)

Mus musculus [8] = assay: Antiinflammatory activity against xylene-induced ear swelling ICR mouse model assessed as swelling rate at 100 mg/kg, IG measured after 1 hr (Activity = 58.21 +/- 12.79%); type: functional
[9] = biological target: T3, Indoleamine 2,3-dioxygenase 2; assay: Inhibition of IDO2 (unknown origin)
[10] = biological target: T2, Indoleamine 2,3-dioxygenase 1; assay: Inhibition of IDO1 (unknown origin)
Target sequence in this assay (P14902 whole entry): as the sequence (P14902 whole entry, looked up) above

Rattus norvegicus [11] = assay: Antiarthritic activity against adjuvant arthritis-induced Sprague-Dawley rat model assessed as decrease in index score at 30 to 120 mg/kg, po administered from day 21 to 36 post CFA injection and measured every 3 days; type: functional, organism-based; conditions: dose 30-120 mg/kg, time 15.0 day
[12] = MRT (0 to infinity) in Sprague-Dawley rat at 1 mg/kg, iv; type: ADME, organism-based; conditions: in vivo
[13] = Metabolic stability in human liver microsome assessed as intrinsic clearance; type: ADME; conditions: microsomes
Mus musculus [14] = assay: Antiarthritic activity against collagen-induced arthritis DBA/1J mouse model assessed as decrease in IL-33 level at 50 to 100 mg/kg, ip administered from day 57 to 74 post CFA injection and measured every 3 days by immunohistochemical staining method; type: functional, organism-based; conditions: dose 50-100 mg/kg, time 17.0 day
Mus musculus [15] = assay: Antiarthritic activity against collagen-induced arthritis DBA/1J mouse model assessed as decrease in bone erosion at 100 mg/kg, ip administered from day 57 to 74 post CFA injection and measured every 3 days by H and E staining method; type: functional, organism-based; conditions: time 17.0 day
[16] = Tmax in Sprague-Dawley rat at 10 mg/kg, po; type: ADME, organism-based; conditions: in vivo
[17] = Apparent volume of distribution in Sprague-Dawley rat at 1 mg/kg, iv; type: ADME, organism-based; conditions: in vivo, read-out: Vz
Rattus norvegicus [18] = assay: Antiarthritic activity against adjuvant arthritis-induced po dosed Sprague-Dawley rat model assessed as decrease in inflammatory cell infiltration administered from day 21 to 36 post CFA injection and measured every 3 days by H and E staining method; type: functional, organism-based; conditions: dose 50-100 mg/kg, time 15.0 day, DDE = dose-dependent effect
[19] = AUC(0 to infinity) in Sprague-Dawley rat at 10 mg/kg, po; type: ADME, organism-based; design: time infinity, dose 10 mg/kg, route po; conditions: in vivo
[20] = Metabolic stability in human liver microsome assessed as intrinsic permeability measured per mg of protein; type: ADME; conditions: microsomes
[21] = Metabolic stability in human liver microsome assessed as binding constant; type: ADME; conditions: microsomes
Mus musculus [22] = assay: Antiarthritic activity against collagen-induced arthritis DBA/1J mouse model assessed as increase in cartilage at 100 mg/kg, ip administered from day 57 to 74 post CFA injection and measured every 3 days by H and E staining method; type: functional, organism-based; conditions: time 17.0 day
[23] = Oral bioavailability in Sprague-Dawley rat at 10 mg/kg; type: ADME, organism-based; conditions: in vivo
[24] = Cmax in Sprague-Dawley rat at 10 mg/kg, po; type: ADME, organism-based; design: dose 10 mg/kg, route po; conditions: in vivo
Mus musculus [25] = assay: Antiarthritic activity against collagen-induced arthritis DBA/1J mouse model assessed as decrease in inflammation at 100 mg/kg, ip administered from day 57 to 74 post CFA injection and measured every 3 days by H and E staining method; type: functional, organism-based; conditions: time 17.0 day
Mus musculus [26] = assay: Antiarthritic activity against collagen-induced arthritis DBA/1J mouse model assessed as decrease in IL-18 level at 50 to 100 mg/kg, ip administered from day 57 to 74 post CFA injection and measured every 3 days by immunohistochemical staining method; type: functional, organism-based; conditions: dose 50-100 mg/kg, time 17.0 day
Mus musculus [27] = assay: Antiarthritic activity against collagen-induced arthritis DBA/1J mouse model assessed as paw swelling at 100 mg/kg, ip administered from day 57 to 74 post CFA injection and measured every 3 days; type: functional, organism-based; conditions: time 17.0 day
[28] = Half life in Sprague-Dawley rat at 10 mg/kg, po; type: ADME, organism-based; conditions: in vivo
Rattus norvegicus [29] = assay: Antiarthritic activity against adjuvant arthritis-induced Sprague-Dawley rat model assessed as decrease in TNF-alpha level at 30 to 120 mg/kg, po administered from day 21 to 36 post CFA injection and measured every 3 days; type: functional, organism-based; conditions: dose 30-120 mg/kg, time 15.0 day
[30] = Metabolic stability in human liver microsome assessed as half life; type: ADME; conditions: liver microsomes
[31] = AUC(0 to infinity) in Sprague-Dawley rat at 1 mg/kg, iv; type: ADME, organism-based; design: time infinity, dose 1 mg/kg, route iv; conditions: in vivo
[32] = Half life in Sprague-Dawley rat at 1 mg/kg, iv; type: ADME, organism-based; conditions: in vivo
Mus musculus [33] = assay: Antiarthritic activity against collagen-induced arthritis ip dosed DBA/1J mouse model assessed as paw swelling administered from day 57 to 74 post CFA injection and measured every 3 days; type: functional, organism-based; conditions: dose 25-100 mg/kg, time 17.0 day, DDE = dose-dependent effect
Rattus norvegicus [34] = assay: Antiarthritic activity against adjuvant arthritis-induced po dosed Sprague-Dawley rat model assessed as decrease in bone erosion of cartilage administered from day 21 to 36 post CFA injection and measured every 3 days by H and E staining method; type: functional, organism-based; conditions: dose 50-100 mg/kg, time 15.0 day, DDE = dose-dependent effect
[35] = Clearance in Sprague-Dawley rat at 1 mg/kg, iv; type: ADME, organism-based; conditions: in vivo
Rattus norvegicus [36] = assay: Antiarthritic activity against adjuvant arthritis-induced Sprague-Dawley rat model assessed as decrease in IL-6 level at 30 to 120 mg/kg, po administered from day 21 to 36 post CFA injection and measured every 3 days; type: functional, organism-based; conditions: dose 30-120 mg/kg, time 15.0 day
[37] = MRT (0 to infinity) in Sprague-Dawley rat at 10 mg/kg, po; type: ADME, organism-based; conditions: in vivo
Rattus norvegicus [38] = assay: Antiarthritic activity against adjuvant arthritis-induced Sprague-Dawley rat model assessed as decrease in paw swelling at 30 to 120 mg/kg, po administered from day 21 to 36 post CFA injection and measured every 3 days; type: functional, organism-based; conditions: dose 30-120 mg/kg, time 15.0 day
Rattus norvegicus [39] = assay: Antiarthritic activity against adjuvant arthritis-induced po dosed Sprague-Dawley rat model assessed as decrease in pannus formation administered from day 21 to 36 post CFA injection and measured every 3 days by H and E staining method; type: functional, organism-based; conditions: dose 50-100 mg/kg, time 15.0 day, DDE = dose-dependent effect
HeLa [40] = assay: Antiproliferative activity against human HeLa cells at 5 uM; type: functional

- inhibition [1]: 10%
- inhibition [2]: 9%
- pEC50 (HeLa [3]): 5.92
Compound: O=C(NCc1cn(CCNc2nonc2/C(=N/O)NCc2ccc(F)cc2)nn1)c1ccc[nH]1

- inhibition [4]: 15%
- inhibition [1]: 52%
- inhibition [2]: 11%
- pEC50 (HeLa [3]): 5.84
Compound: O=C(NCc1cn(CCNc2nonc2/C(=N/O)Nc2cc(Br)cc(Br)c2)nn1)c1ccccn1

- inhibition [1]: 0%
- inhibition [2]: 7%
- pEC50 (HeLa [3]): 5.96
Compound: O=C(NCc1cn(CCNc2nonc2/C(=N/O)NCc2ccc(F)cc2)nn1)c1ccccn1

- inhibition [4]: 51%
- pIC50 [5]: 7.33
- pIC50 [7]: 6.87
- inhibition [1]: 86%
- inhibition [2]: 75%
- pEC50 (HeLa [3]): 7.14
Compound: O=C(NCc1cn(CCNc2nonc2/C(=N/O)Nc2ccc(F)c(Br)c2)nn1)c1ccc[nH]1
- Activity (Mus musculus [6]): 52.17%
- Activity (Mus musculus [8]): 27.84%

- pIC50 [9]: 5.74
- pIC50 [10]: < 4.00
Compound: COc1ccc2[nH]c([S+]([O-])Cc3ncc(C)c(OC)c3C)nc2n1 (configuration not stated) [TENATOPRAZOLE]

- inhibition [1]: 5%
- inhibition [2]: 26%
- pEC50 (HeLa [3]): 5.75
Compound: O=C(NCc1cn(CCNc2nonc2/C(=N/O)NCc2ccc(F)c(Br)c2)nn1)c1ccccn1

- inhibition [1]: 23%
- inhibition [2]: 5%
- pEC50 (HeLa [3]): 5.44
Compound: O=C(NCc1cn(CCNc2nonc2/C(=N/O)Nc2cc(Br)cc(C(F)(F)F)c2)nn1)c1ccccn1

- inhibition [1]: 0%
- inhibition [2]: 17%
- pEC50 (HeLa [3]): 5.80
Compound: O=C(NCc1cn(CCNc2nonc2/C(=N/O)NCc2ccc(F)c(Br)c2)nn1)c1ccc[nH]1

- inhibition [1]: 1%
- inhibition [2]: 0%
- pEC50 (HeLa [3]): 5.47
Compound: O=C(NCc1cn(CCNc2nonc2/C(=N/O)NCc2ccc(Br)cc2)nn1)c1ccccn1

- inhibition [4]: 16%
- pIC50 [5]: 7.43
- pIC50 [7]: 6.24
- inhibition [1]: 64%
- inhibition [2]: 71%
- pEC50 (HeLa [3]): 7.19
Compound: O=C(NCc1cn(CCNc2nonc2/C(=N/O)Nc2cccc(Br)c2)nn1)c1ccccn1

- inhibition [4]: 41%
- pIC50 [5]: 6.39
- MRT inf [12]: 33 min
- CLH [13]: 0.056 mL/min
- Tmax [16]: 45 min
- Vd [17]: 2.68 L/kg
- AUC(0-inf) [19]: 670 ng·h/mL
- Pm [20]: 0.25 mL⁻¹
- K [21]: 0.014 min⁻¹
- bioavailability [23]: 17.9%
- pIC50 [7]: 6.95
- Cmax [24]: 154 ng/mL
- half-life [28]: 121 min
- half-life [30]: 49.5 min
- AUC(0-inf) [31]: 375 ng·h/mL
- inhibition [1]: 97%
- half-life [32]: 41.4 min
- clearance [35]: 44.5 mL/min/kg
- inhibition [2]: 26%
- MRT inf [37]: 449 min
- pEC50 (HeLa [3]): 6.20
Compound: O=C(NCc1cn(CCNc2nonc2/C(=N/O)NCc2cccc(Br)c2)nn1)c1ccccn1
- Activity (Rattus norvegicus [11]): Active
- Activity (Mus musculus [14]): Active
- Activity (Mus musculus [15]): Active
- Activity (Rattus norvegicus [18]): Dde
- Activity (Mus musculus [22]): Active
- Activity (Mus musculus [6]): 65.32%
- Activity (Mus musculus [25]): Active
- Activity (Mus musculus [26]): Active
- Activity (Mus musculus [27]): Active
- Activity (Mus musculus [8]): 20.19%
- Activity (Rattus norvegicus [29]): Active
- Activity (Mus musculus [33]): Dde
- Activity (Rattus norvegicus [34]): Dde
- Activity (Rattus norvegicus [36]): Active
- Activity (Rattus norvegicus [38]): Active
- Activity (Rattus norvegicus [39]): Dde

- inhibition [1]: 15%
- inhibition [2]: 14%
Compound: C[C@H](N/C(=N\O)c1nonc1NCCn1cc(CNC(=O)c2ccc[nH]2)nn1)c1cccc(Br)c1
- Activity (HeLa [40]): 22.74%

- inhibition [1]: 15%
- inhibition [2]: 3%
Compound: C[C@H](N/C(=N\O)c1nonc1NCCn1cc(CNC(=O)c2ccccn2)nn1)c1cccc(Br)c1
- Activity (HeLa [40]): 17.87%

- pIC50 [9]: 4.29
Compound: c1ccc(CCc2ccccc2-c2c[nH]nn2)cc1
